Data as given in patent publication US5486597A, “Tetrapeptide derivatives and analogues” (James Black Foundation Limited, priority 1990, dated 1996).
Non-standard residues stand in square brackets, D forms with d. Residues, ends and D or L forms follow the SMILES beside them. *: point of attachment. Trp(1-Me) = Cn1cc(C[C@H](N)C(=O)O)c2ccccc21; αMeW = C[C@](N)(Cc1c[nH]c2ccccc12)C(=O)O; 2Nal = N[C@@H](Cc1ccc2ccccc2c1)C(=O)O; d1Nal = N[C@H](Cc1cccc2ccccc12)C(=O)O; Fmoc = O=C(OCC1c2ccccc2-c2ccccc21)*; Adoc = O=C(OC12CC3CC(CC(C3)C1)C2)*; Boc = CC(C)(C)OC(=O)*; For = O=C*

What was measured:
[1] = target: T1, cholecystokinin receptors (Cavia porcellus, UniProt Q63931); assay: CCK-antagonist activity in isolated guinea-pig gall-bladder strip preparations; type: cell-based; conditions: guinea-pig gall-bladder strips; CCK-8 as agonist; test compound incubated for 60 minutes; standard errors less than 5%
T1 construct: Isolated, strip preparations were prepared from gall-bladders removed from male Dunkin-Hartley guinea-pigs; from tissue; host or cells: guinea-pig gall-bladder strips
T1 sequence (Q63931 1-430): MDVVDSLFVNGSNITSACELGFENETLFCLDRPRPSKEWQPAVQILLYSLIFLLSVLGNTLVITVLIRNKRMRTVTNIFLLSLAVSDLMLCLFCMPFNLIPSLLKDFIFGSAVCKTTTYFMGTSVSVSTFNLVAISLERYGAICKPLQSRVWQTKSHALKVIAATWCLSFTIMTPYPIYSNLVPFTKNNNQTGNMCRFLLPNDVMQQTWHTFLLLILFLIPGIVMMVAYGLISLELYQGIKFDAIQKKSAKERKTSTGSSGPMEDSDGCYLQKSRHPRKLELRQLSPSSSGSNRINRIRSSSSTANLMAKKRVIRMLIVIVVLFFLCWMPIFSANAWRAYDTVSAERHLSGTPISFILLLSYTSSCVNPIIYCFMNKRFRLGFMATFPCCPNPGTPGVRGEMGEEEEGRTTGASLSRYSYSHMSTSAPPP
Protocol: The compounds of the invention were also assayed for CCK-antagonist activity as follows:
Isolated, strip preparations were prepared from gall-bladders removed from male Dunkin-Hartley guinea-pigs (250-500 g body weight) according to the method of La Morte, W. W., et al., J.P.E.T., 217, (3), 638-644 (1981).
The complete gall-bladder is removed and opened along the longitudinal axis. Strips measuring 3 mm in the longitudinal axis and 1 mm in the transverse axis are cut and then tied with cotton to stainless steel wires. The preparation is connected to a GRASS FTO3 isometric transducer under an initial loading tension of 1 g and is immersed in 20 mls of Krebs solution maintained at 37° C. and gassed with 95% O2 /5% CO2. The Krebs solution is as detailed above in connection with the fundus assay, except that the Ca^2+ concentration is decreased to 0.5 mM. After 30 mins the preparation is washed. Drug addition begins after an initial 90 min stabilisation period. Responses are measured as changes in tension from that immediately prior to any drug addition. Single cumulative agonist concentration-effect curves, using CCK-8 as agonist, are obtained on each preparation in the absence and presence of test compound which has been incubated for 60 minutes. The antagonist activity of the test compound is estimated and expressed as the negative logarithm (base 10) of the equilibrium dissociation constants (pK8) using the modifications of standard competitive analysis described by Black et al., Br. J. Pharmacol.,86,571-579, (1985) and Shankley et al., Br. J. Pharmacol.,94,264-274 (1988).

[2] = target: T2, gastrin receptor (Mus musculus, UniProt P56481); assay: mouse stomach assay for gastrin activity (isolated stomach, acid secretion); type: cell-based; conditions: for pKB mouse stomach / Kb: isolated mouse stomach assay, gastrin antagonism, standard errors less than 5%; for Acid seretion at 10^-5 M test compound, relative to pentagastrin (%): mouse stomach, NS = not significant; for Kb: read-out: pKB mouse stomach (converted)
T2 construct: assayed for gastrin activity using the mouse stomach assay; from tissue; host or cells: isolated mouse stomach
T2 sequence (P56481 1-453): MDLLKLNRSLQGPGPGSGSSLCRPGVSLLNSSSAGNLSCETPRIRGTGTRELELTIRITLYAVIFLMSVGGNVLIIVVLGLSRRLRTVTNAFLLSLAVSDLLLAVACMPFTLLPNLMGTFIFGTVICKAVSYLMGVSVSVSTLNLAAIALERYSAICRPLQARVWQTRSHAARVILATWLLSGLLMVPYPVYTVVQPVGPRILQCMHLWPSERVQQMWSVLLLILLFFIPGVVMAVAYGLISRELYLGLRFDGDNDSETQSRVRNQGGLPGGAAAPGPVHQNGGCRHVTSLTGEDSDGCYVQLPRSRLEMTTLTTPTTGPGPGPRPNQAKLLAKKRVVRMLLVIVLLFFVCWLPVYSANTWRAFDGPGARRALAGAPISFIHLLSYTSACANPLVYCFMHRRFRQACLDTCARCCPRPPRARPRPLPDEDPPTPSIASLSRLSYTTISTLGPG
Protocol: The compounds were assayed for gastrin activity using the mouse stomach assay as described by Black, J. W. and Shankley, N. P., Br. J. Pharmacol., 86, 571-579, (1985), and also in the guinea-pig fundus assay, as follows: […]

pKB [1]	Acid seretion at 10^-5 M test compound, relative to pentagastrin (%) [2]	Molecule	further results
6.4	20%	CC(C)(C)OC(=O)N[C@@H](Cc1cn(C=O)c2ccccc12)C(=O)N[C@@H](Cc1ccc2ccccc2c1)C(=O)N[C@@H](CC(=O)O)C(=O)N[C@@H](Cc1ccccc1)C(N)=O [Example 60, N-t-Butyloxycarbonyl-L-N^in-formyltryptophyl-L-3-(2-naphthyl)alanyl-L-aspartyl-L-phenylalaninamide] (Boc-W(For)[2Nal]DF-NH2)	pKB mouse stomach [2]: 5.3
6.4		N-t-Butyloxycarbonyl-L-tryptophyl-L-3-(2-naphthyl)alanyl-L-aspartyl-2,4-dichlorophenethylamide [Example 37]	
6.1		Cn1cc(C[C@H](NC(=O)OC(C)(C)C)C(=O)N[C@@H](Cc2ccc3ccccc3c2)C(=O)N[C@@H](CC(=O)O)C(=O)N[C@@H](Cc2ccccc2)C(N)=O)c2ccccc21 [Example 45, N-t-Butyloxycarbonyl-L-N^in-methyltryptophyl-L-3-(2-naphthyl)alanyl-L-aspartyl-L-phenylalaninamide] (Boc-[Trp(1-Me)][2Nal]DF-NH2)	
	50%	CC(C)(C)OC(=O)N[C@@H](Cc1c[nH]c2ccccc12)C(=O)N[C@H](Cc1cccc2ccccc12)C(=O)N[C@@H](CC(=O)O)C(=O)N[C@@H](Cc1ccccc1)C(N)=O [Example 24, N-t-Butyloxycarbonyl-L-tryptophyl-D-3-(1-naphthyl)alanyl-L-aspartyl-L-phenylalaninamide] (Boc-W[d1Nal]DF-NH2)	Kb [2]: 251 nM; Kb [1]: 316 nM
6.5		CC(C)(C)OC(=O)N[C@@H](Cc1c[nH]c2ccccc12)C(=O)N[C@@H](Cc1ccc2ccccc2c1)C(=O)N[C@@H](CC(=O)O)C(=O)NCCc1ccc2c(c1)CCCC2 [Example 43, N-t-Butyloxycarbonyl-L-tryptophyl-L-3-(2-naphthyl)alanyl-L-aspartyl-2-(5,6,7,8-tetrahydronaphthyl)ethylamide]	
6.4		CC(C)(C)OC(=O)N[C@@H](Cc1c[nH]c2ccccc12)C(=O)N[C@@H](Cc1ccc2ccccc2c1)C(=O)N[C@@H](CC(=O)O)C(=O)NCCc1ccc(C(F)(F)F)cc1 [Example 28, N-t-Butyloxycarbonyl-L-tryptophyl-L-3-(2-naphthyl)alanyl-L-aspartyl-4-trifluoromethylphenethylamide]	
5.5	44%	CC(C)(C)OC(=O)N[C@@](C)(Cc1c[nH]c2ccccc12)C(=O)N[C@@H](Cc1ccc2ccccc2c1)C(=O)N[C@@H](CC(=O)O)C(=O)N[C@@H](Cc1ccccc1)C(N)=O [Example 17, N-t-Butyloxycarbonyl-a-methyl-tryptophyl-L-3-(2-naphthyl)alanyl-L-aspartyl-L-phenylalaninamide] (Boc-[αMeW][2Nal]DF-NH2)	pKB mouse stomach [2]: 5.9
6.7	20%	COc1ccc(CCNC(=O)[C@H](CC(=O)O)NC(=O)[C@H](Cc2ccc3ccccc3c2)N(C)C(=O)[C@H](Cc2c[nH]c3ccccc23)NC(=O)OC(C)(C)C)cc1 [Example 59, N-t-Butyloxycarbonyl-L-tryptophyl-N-methyl-L-3-(2-naphthyl)alanyl-L-aspartyl-4-methoxyphenethylamide]	pKB mouse stomach [2]: 5.3
	67%	NC(=O)[C@H](Cc1ccccc1)NC(=O)[C@H](CC(=O)O)NC(=O)[C@H](Cc1ccc2ccccc2c1)NC(=O)[C@H](Cc1c[nH]c2ccccc12)NC(=O)OCC1c2ccccc2-c2ccccc21 [Example 16, N-9-Fluorenylmethoxycarbonyl-L-tryptophyl-L-3-(2-naphthyl)alanyl-L-aspartyl-L-phenylalaninamide] (Fmoc-W[2Nal]DF-NH2)	Kb [2]: 2000 nM; Kb [1]: 2510 nM
6.4		COc1cc(OC)c(CCNC(=O)[C@H](CC(=O)O)NC(=O)[C@H](Cc2ccc3ccccc3c2)NC(=O)[C@H](Cc2c[nH]c3ccccc23)NC(=O)OC(C)(C)C)c(OC)c1 [Example 55, N-t-Butyloxycarbonyl-L-tryptophyl-L-3-(2-naphthyl)alanyl-L-aspartyl-2,4,6-trimethoxyphenethylamide]	
		NC(=O)[C@H](Cc1ccccc1)NC(=O)[C@H](CC(=O)O)NC(=O)[C@H](Cc1ccc2ccccc2c1)NC(=O)[C@H](Cc1c[nH]c2ccccc12)NC(=O)OC12CC3CC(CC(C3)C1)C2 [Example 13, N-1-Adamantyloxycarbonyl-L-tryptophyl-L-3-(2-naphthyl)alanyl-L-aspartyl-L-phenylalaninamide] (Adoc-W[2Nal]DF-NH2)	Kb [1]: 1260 nM
		CC(C)(C)OC(=O)N[C@H](Cc1c[nH]c2ccccc12)C(=O)N[C@@H](Cc1ccc2ccccc2c1)C(=O)N[C@@H](CC(=O)O)C(=O)N[C@@H](Cc1ccccc1)C(N)=O [Example 22, N-t-Butyloxycarbonyl-D-tryptophyl-L-3-(2-naphthyl)alanyl-L-aspartyl-L-phenylalaninamide] (Boc-[dW][2Nal]DF-NH2)	Kb [1]: 631 nM
5.8		CC(C)(C)OC(=O)N[C@@H](Cc1c[nH]c2ccccc12)C(=O)N[C@@H](Cc1ccc2ccccc2c1)C(=O)N[C@@H](CC(=O)O)C(=O)NCC12CC3CC(CC(C3)C1)C2 [Example 35, N-t-Butyloxycarbonyl-L-tryptophyl-L-3-(2-naphthyl)alanyl-L-aspartyl-1-adamantylmethylamide]	
6.1		CC(C)(C)OC(=O)N[C@@H](Cc1c[nH]c2ccccc12)C(=O)N[C@@H](Cc1ccc2ccccc2c1)C(=O)N[C@@H](CC(=O)O)C(=O)NCCc1cccc(C(F)(F)F)c1 [Example 50, N-t-Butyloxycarbonyl-L-tryptophyl-L-3-(2-naphthyl)alanyl-L-aspartyl-3-trifluoromethylphenethylamide]	
6.0		COc1ccc(CCNC(=O)[C@H](CC(=O)O)NC(=O)[C@H](Cc2ccc3ccccc3c2)NC(=O)[C@H](Cc2c[nH]c3ccccc23)NC(=O)OC23CC4CC(CC(C4)C2)C3)cc1 [Example 14, N-1-Adamantyloxycarbonyl-L-tryptophyl-L-3-(2-naphthyl)alanyl-L-aspartyl-4-methoxyphenethylamide]	
6.6		CC(C)(C)OC(=O)N[C@@H](Cc1c[nH]c2ccccc12)C(=O)N[C@@H](Cc1ccc2ccccc2c1)C(=O)N[C@@H](CC(=O)O)C(=O)NC1Cc2ccccc2C1 [Example 53, N-t-Butyloxycarbonyl-L-tryptophyl-L-3-(2-naphthyl)alanyl-L-aspartyl-2-indanylamide]	

Molecule	pKB [1]	Acid seretion at 10^-5 M test compound, relative to pentagastrin (%) [2]	further results
NC(=O)[C@H](Cc1ccccc1)NC(=O)[C@H](CC(=O)O)NC(=O)[C@H](Cc1ccc2ccccc2c1)NC(=O)CCc1c[nH]c2ccccc12 [Example 21, Indole-3-propionamido-L-3-(2-naphthyl)alanyl-L-aspartyl-L-phenylalaninamide]	6.2		
CNC(=O)[C@H](Cc1ccccc1)NC(=O)[C@H](CC(=O)O)NC(=O)[C@H](Cc1ccc2ccccc2c1)NC(=O)[C@H](Cc1c[nH]c2ccccc12)NC(=O)OC(C)(C)C [Example 5, N-t-Butyloxycarbonyl-L-tryptophyl-L-3-(2-naphthyl)alanyl-L-aspartyl-L-phenylalanyl-(N-methyl)amide] (Boc-W[2Nal]DF-NHMe)	5.4	23%	pKB mouse stomach [2]: 5.6
